Results taken from patent US20120328569A1, “INHIBITORS OF HEPATITIS C VIRUS NS5B POLYMERASE” (priority 2010, published 2012).

Tested on: HCV genotype 1b replicon
Assay: HCV replicon assay, cell ELISA with antibody to replicon-encoded NS3/4A (genotype 1b replicon)
Format: cell-based, hepatitis C virus
Conditions: Hepatitis C virus, 96 h, read-out: 1b IC50(nM), HCV genotype 1b replicon; 96 hours incubation; NS3/4A cell ELISA
Outline: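 Replicon-harbouring cells carrying neomycin phosphotransferase were incubated 96 h with a compound dilution series without G418. Replication was quantified indirectly by a cell ELISA detecting replicon-encoded NS3/4A. IC50 values were calculated relative to DMSO control with a four-parameter fit.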

CNC(=O)c1c(-c2ccc(F)cc2)oc2cc(N(C(C)CF)S(C)(=O)=O)c(-c3cccc(-c4nc5ncccc5o4)c3)cc12 (centres unmarked) [Example 875] and CNC(=O)c1c(-c2ccc(F)cc2)oc2cc(N(CC3(C)COC3)S(C)(=O)=O)c(-c3cccc(-c4nc5ncccc5o4)c3)cc12 [Example 723] are within 1.5-fold of each other in IC50: 2.1 nM for the first, 2.31 nM for the second.

Going from CNC(=O)c1c(-c2ccc(F)cc2)oc2cc(N(C3CCOC3)S(C)(=O)=O)c(-c3ccc(OC)c(-c4nc5c(F)cccc5o4)c3)cc12 (centres unmarked) [Example 726] to CNC(=O)c1c(-c2ccc(F)cc2)oc2cc(N(CC3(C#N)CC3)S(C)(=O)=O)c(-c3ccc(OC)c(-c4nc5c(F)cccc5o4)c3)cc12 [Example 737], the IC50 rises from 5.54 nM to 19 nM (3.4-fold). The first is the more potent here.

In the case of CNC(=O)c1c(-c2ccc(F)cc2)oc2cc(N(C)S(C)(=O)=O)c(-c3ccc(OC)c(-c4nc5c(C(C)(C)C#N)cccc5o4)c3)cc12 [Example 428], the IC50 was 29.1 nM.

Same assay, conditions: Hepatitis C virus, 96 h, read-out: Replicon 1b IC50 (nM), HCV genotype 1b replicon cells, 96 hours incubation, NS3/4A ELISA readout

CNC(=O)c1c(-c2ccc(F)cc2)oc2cc(N(C)S(C)(=O)=O)c(-c3cccc(-c4[nH]c5ccccc5c4C)c3)cc12 [Compound 370] and CNC(=O)c1c(-c2ccc(F)cc2)oc2cc(N(C)S(C)(=O)=O)c(-c3cccc(-c4nc5ccccc5n4C)c3)cc12 [Example 332] are within 1.5-fold of each other in IC50: 8.8 nM for the first, 9.6 nM for the second.

Compared with CNC(=O)c1c(-c2ccc(F)cc2)oc2cc(N(C)S(C)(=O)=O)c(-c3cc(F)cc(-c4nc5cccnc5[nH]4)c3)cc12 [Example 305], CNC(=O)c1c(-c2ccc(F)cc2)oc2cc(N(C)S(C)(=O)=O)c(-c3cccc(-c4nc5c(C)ccnc5[nH]4)c3)cc12 [Example 330] is 2.5-fold higher in IC50: 1.1 nM for the first, 2.7 nM for the second. The first is the more potent here.

Compared with CNC(=O)c1c(-c2ccc(F)cc2)oc2cc(N(CCCO)S(C)(=O)=O)c(-c3cccc(-c4nc5ncccc5o4)c3)cc12 [Example 384, 2-(4-fluorophenyl)-6-(N-(3-hydroxypropyl)methylsulfonamido)-N-methyl-5-(3-(oxazolo[4,5-b]pyridin-2-yl)phenyl)benzofuran-3-carboxamide], CNC(=O)c1c(-c2ccc(F)cc2)oc2cc(N(C)S(C)(=O)=O)c(-c3cc(C)cc(-c4nc5ncccc5o4)c3)cc12 [Example 210] is 2.1-fold higher in IC50: 0.9 nM for the first, 1.9 nM for the second. The first is the more potent here.

CNC(=O)c1c(-c2ccc(F)cc2)oc2cc(N(C)S(C)(=O)=O)c(-c3ccccc3F)cc12 [Example 78, 5-(2-fluorophenyl)-2-(4-fluorophenyl)-N-methyl-6-[methyl(methylsulfonyl)amino]-1-benzofuran-3-carboxamide] and CNC(=O)c1c(-c2ccc(F)cc2)oc2cc(N(C)S(C)(=O)=O)c(-c3ccc(OC(C)C)cc3)cc12 [Example 109, 2-(4-fluorophenyl)-N-methyl-6-[methyl(methylsulfonyl)amino]-5-[4-(propan-2-yloxy)phenyl]-1-benzofuran-3-carboxamide] are within 1.5-fold of each other in IC50: 215 nM for the first, 216 nM for the second.

First: CNC(=O)c1c(-c2ccc(F)cc2)oc2cc(N(C)S(C)(=O)=O)c(-c3cc(-c4nc5cccnc5o4)ccc3F)cc12 [Example 222]
Second: CNC(=O)c1c(-c2ccc(F)cc2)oc2cc(N(C)S(C)(=O)=O)c(-c3ccc(F)c(-c4cc5cccnc5[nH]4)c3)cc12 [Compound 380]
The IC50 of the first is 2.9-fold higher: 3.5 nM for the first, 1.2 nM for the second.

Going from CNC(=O)c1c(-c2ccc(F)cc2)oc2cc(N(C)S(C)(=O)=O)c(-c3cc(-c4nc5cccnc5s4)ccc3OC)cc12 [Example 250] to CNC(=O)c1c(-c2ccc(F)cc2)oc2cc(N(C)S(C)(=O)=O)c(-c3ccc(OC)c(-c4nc5cccc(C#N)c5o4)c3)cc12 [Example 407], the IC50 falls from 5.1 nM to 2.8 nM (1.8-fold).

CNC(=O)c1c(-c2ccc(F)cc2)oc2cc(N(C)S(C)(=O)=O)c(-c3cccc(-c4nc5c(F)cccc5s4)c3)cc12 [Example 278] and CNC(=O)c1c(-c2ccc(F)cc2)oc2cc(N(C)S(C)(=O)=O)c(-c3cc(F)c(OC)c(-c4nc5ncccc5o4)c3)cc12 [Example 232] are within 1.5-fold of each other in IC50: 3.2 nM for the first, 2.4 nM for the second.

Work on CNC(=O)c1c(-c2ccc(F)cc2)oc2cc(N(C(C)c3ccccc3)S(C)(=O)=O)c(-c3ccccc3)cc12 (centres unmarked) [Example 4, 2-(4-fluorophenyl)-N-methyl-6-[(methylsulfonyl) (1-phenylethyl)amino]-5-phenyl-1-benzofuran-3-carboxamide] yielded an IC50 of 703 nM.
